Source: patent US8067422B2, “Crystal form of phenylamino pyrimidine derivatives” (Natco Pharma Limited, priority 2008, dated 2011)

How the values were obtained:
[1] = system: MDAMB231 breast cancer cells; assay: Matrigel invasion assay (modified Boyden chamber), MDA-MB-231; assay type: cell-based; details: MDA-MB-231
Method: (§1) The in vitro invasiveness of 4910, 5310 and U87 glioma cells and MDAMB231 and ZR71 breast cancer cells in the presence of specified concentrations of compounds were assessed using a modified Boyden chamber assay. Cells were treated with these compounds for 48 h. 1×10^6 cells were suspended in 600 μl of serum-free medium supplemented with 0.2% BSA and placed in the upper compartment of the transwell chambers (Corning Costar Fischer Scientific Cat #07-200-158, Pittsburgh Pa.) coated with Matrigel (0.7 mg/ml). The lower compartment of the chamber was filled with 200 μl of serum medium and the cells were allowed to migrate for 24 h. After incubation, the cells were fixed and stained with Hema-3 and quantified as previously described (Mohanam et al. 1993). The migrated cells were imaged microscopically to determine the reduction in invasiveness induced by the compounds of this invention.

[2] = system: K562 luciferase expressing cells; assay: Leukemic survival study in nude mice implanted with K562 luciferase expressing cells; assay type: in vivo
From the text: K562 luciferase expressing cells were implanted intraperitoneally into nude mice; the mice were scanned using the xenogeny IVIS image station after ip injections of luciferin does determine implantations. Drug treatment was started as in previous studies day 15 after implantation. The animals were given treatment till day 42, after which drug treatment was stopped and survival of the animals determined as per the animal care regulations. […] Drug treatment was withdrawn on day 42 post implantation and survival of animals determined.

5310 glioma cells = assay: Matrigel invasion assay (modified Boyden chamber), 5310; assay type: cell-based; details: 5310
Method: as §1

U87 glioma cells [3] = assay: Matrigel invasion assay (modified Boyden chamber), U87; assay type: cell-based; details: U87
Method: as §1

[4] = system: Baf3 murine leukemia cells (Wt); assay: Blast cell count in nude mice implanted with Baf3 Wt cells; assay type: in vivo; details: Baf3Wt; Imatinib 10 mg/kg, AN019 20 mg/kg, AN024 20 mg/kg, oral gavage or ip; day 42
From the text: Blood smears were obtained via the tail vein or via the femoral vein every 6th day and blast cells counted and graphically represented.
Abdominal swelling and decrease in activity was monitored daily, blood smear taken via the tail vein or the femoral vein every 6th day and H&E stained as per standard protocols. 42 days after implantation, mice were sacrificed and spleens harvested.
Nude mice were intraperitoneally implanted with Baf3 mutant cells (wt, T315I, M351T or E255K). […] Blood was drawn from the femoral vein or tail vein every 6th day and blast cell count determined and graphically represented.

[5] = system: K562 luc human leukemia cells; assay: Luciferase expression in nude mice implanted with K562 luc cells, low dose oral administration; assay type: in vivo
Method: Five mice were used per group and divided into 24 groups+2 control. All groups were implanted with K562 normal/luc cells. Of the 24 groups, 12 were used for luciferase studies whereas the other 12 were used for blood smear count studies.
Drugs were administered by oral gavage (2% gum acacia and 2% SLS in an aqueous suspension).

in vivo = details: mouse
[6] = system: MDAMB231 breast cancer cells; assay: In vitro angiogenic assay, MDA-MB-231 conditioned media on human dermal endothelial cells; assay type: cell-based; details: MDA-MB-231 cells
Method: (§2) The in vitro angiogenesis of 4910, 5310 and U87 glioma cells and MDAMB231 and ZR71 breast cancer cells in the presence of specified concentrations of compounds were determined as follows, cells (2×10^4/well) were seeded in 8-well chamber slides and were treated with various concentrations of test compounds. After a 24 h incubation period, the conditioned media was removed and added to a 4×10^4 human dermal endothelial cell (monolayer in 8-well chamber slides) and the human dermal endothelial cells were allowed to grow for 72 h. Cells were then fixed in 3.7% formaldehyde and stained with H&E and photographed.

U87 glioma cells [7] = assay: In vitro angiogenic assay, U87 conditioned media on human dermal endothelial cells; assay type: cell-based
Method: as §2

4910 glioma cells = assay: In vitro angiogenic assay, 4910 conditioned media on human dermal endothelial cells; assay type: cell-based; details: 4910 cells
Method: as §2

## Cc1ccc(NC(=O)c2cc(C(F)(F)F)cc(C(F)(F)F)c2)cc1Nc1nccc(-c2cccnc2)n1 [AN019, (3,5-bis trifluoromethyl)-N-[4-methyl-3-(4-pyridin-3yl-pyrimidin-2ylamino)-phenyl]-benzamide]
[1]
  ±Change in invasion after radiation: −30%
[2]; drug treatment withdrawn on day 42
  Blast cell count from blood smears, effectiveness after withdrawal of drug treatment: showed effectiveness after withdrawal of drug treatment
[2]; treatment day 15 to day 42, then withdrawn, 10 animals
  Mortality: did not show any mortality
5310 glioma cells
  ±Change in invasion after radiation: +1%
U87 glioma cells [3]
  ±Change in invasion after radiation: 0%
[4]
  Blast cell count in blood smears: complete regression of leukemic blast cells
[5]; 1 mg/kg
  Luciferase expression: did not induce a decrease in luciferase expression
[5]; 5 mg/kg
  Luciferase expression: fixation of leukemia cells at constant expression levels
[5]; 10 mg/kg
  Luciferase expression: decrease in luciferase expression
[5]; 20 mg/kg
  Luciferase expression: decrease in luciferase expression
In vivo
  MTD: 500 mg/kg
[6]; after radiation
  Inhibition of angiogenesis: slight inhibition
[6]; control condition (without radiation)
  Inhibition of angiogenesis: slight inhibition
U87 glioma cells [7]; after radiation
  Inhibition of angiogenesis: significant retardation in angiogenesis
U87 glioma cells [7]; without radiation
  Inhibition of angiogenesis: significant retardation in angiogenesis
4910 glioma cells; after radiation
  Inhibition of angiogenesis: increase in angiogenic inhibition
4910 glioma cells; without radiation
  Inhibition of angiogenesis: inhibition of angiogenesis similar to MDA-MB-231 cells
